For ten compounds, IC50, Least dose and Ratio results are on record in ChEMBL document CHEMBL1123271, “Selective monoamine oxidase inhibitors. 4. 4-Aminophenethylamine derivatives with neuron-selective action” (J Med Chem, 1986).

The species named for assay [1] is Rattus norvegicus. Put plainly: Compound was tested for its ability to inhibit dopamine uptake. Type of assay: functional, organism-based.
Assay [2] is filed under the species Rattus norvegicus. Put plainly: Compound was tested for its ability to inhibit norepinephrine uptake. Type of assay: functional, organism-based.
The species named for assay [3] is Rattus norvegicus. The experiment in a line: Compound was tested for its ability to inhibit serotonin uptake. Type of assay: functional, organism-based.
Assay [4] is filed under the species Rattus norvegicus. Put plainly: Determined from log concentration-inhibition curves using rat brain mitochondrial preparation as enzyme and [14C]5-HT (5-HT) as a substrate. Type of assay: functional.
The subject of assay [5] is Rattus norvegicus. Put plainly: Compound was tested for the behavioral changes in reserpinized rats that indicates the release of dopamine by subcuteneous administration. Type of assay: functional.
Assay [6] concerns Rattus norvegicus. The experiment in a line: Compound was tested for the behavioral changes in reserpinized rats that indicates the release of serotonin (5-HT syndrome) by subcuteneous administration. Type of assay: functional.
The nature of assay [7]: Ratio between inhibition of outside DA neurons to that of inside DA neurons. Type of assay: functional.
The nature of assay [8]: Ratio (PEA/5-HT) of the compound. Type of assay: functional.
Assay [9] can be described thus: Ratio between inhibition of outside 5-HT neurons to that of inside 5-HT neurons. Type of assay: functional.
Assay [10] can be described thus: Ratio between inhibition of outside NE neurons to that of inside NE neurons. Type of assay: functional.
The species entered for assay [11] is Rattus norvegicus. The experiment in a line: Determined from log concentration-inhibition curves using rat brain mitochondrial preparation as enzyme and phenethylamine (PEA) as a substrate. Type of assay: functional.
Assay [12] concerns Rattus norvegicus. Put plainly: Compound was tested for the behavioral changes in reserpinized rats that indicates the release of norepinephrine (reversal of ptosis) by subcuteneous administration. Type of assay: functional.
Assay [13] is filed under the species Rattus norvegicus. The experiment in a line: Compound was tested for its ability to inhibit norepinephrine uptake. Type of assay: functional, organism-based.

As to `CC(C)(N)Cc1ccc(N)cc1Cl`, the IC50 (in general, the concentration that inhibits the measured activity by half) was 15 µM in the assay listed under Rattus norvegicus [1]; 0.6 µM in the assay listed under Rattus norvegicus [2]; 5.5 µM in the assay filed under Rattus norvegicus [3]; 1.3 µM in the assay filed under Rattus norvegicus [4]; 1700 µM in the assay listed under Rattus norvegicus [11]. Moreover, the Least dose is over 247 mg/kg with Rattus norvegicus [5], over 247 mg/kg in the assay on Rattus norvegicus [6] and 247 mg/kg with Rattus norvegicus [12]. The Ratio in [7] was determined as 2.5; in assay [8], 1310; in assay [9], 6; in [10] it was 4.5.
Consider `Cc1cc(N)ccc1CC(C)N` (centres undefined), for which the IC50 worked out at 11 µM in the assay listed under Rattus norvegicus [1]; 0.32 µM in the assay listed under Rattus norvegicus [13]; 9 µM in the assay filed under Rattus norvegicus [3]; 1.6 µM in the assay filed under Rattus norvegicus [4]; 2500 µM in the assay listed under Rattus norvegicus [11]. For the same compound, the figures for the Least dose in the assay with Rattus norvegicus [5], in the assay on Rattus norvegicus [6] and in the assay on Rattus norvegicus [12] were over 270 mg/kg, 270 mg/kg and 270 mg/kg, respectively. Further, the Ratio in assay [7] is 9.7; in [8] it was 1560; in assay [9] it was >>5; in [10] it was over 12.
Regarding `CC(C)(N)Cc1ccc(N)cc1F`, the IC50 in the assay filed under Rattus norvegicus [1] was determined as 1.6 µM; in the assay listed under Rattus norvegicus [13], 0.32 µM; in the assay filed under Rattus norvegicus [3] it was 27 µM; in the assay listed under Rattus norvegicus [4], 6 µM; in the assay filed under Rattus norvegicus [11], 2800 µM. Moreover, the Least dose in the assay with Rattus norvegicus [5] was 264 mg/kg; with Rattus norvegicus [6], over 264 mg/kg; with Rattus norvegicus [12], 264 mg/kg. Moreover, the Ratio in [7] is 4.1; in [8], 467; in assay [9], 1.6; in [10], over 2.
`CC(N)Cc1ccc(N)cc1Cl` (centres undefined): the IC50 in the assay filed under Rattus norvegicus [1] was 0.07 µM; in the assay listed under Rattus norvegicus [13], 0.19 µM; in the assay listed under Rattus norvegicus [3], 3 µM; in the assay listed under Rattus norvegicus [4], 0.27 µM; in the assay filed under Rattus norvegicus [11], 750 µM. Moreover, the Least dose in the assay on Rattus norvegicus [5] was over 131 mg/kg; in the assay on Rattus norvegicus [6], 33 mg/kg; in the assay with Rattus norvegicus [12], 16 mg/kg. Besides, the Ratio is 3.3 in [7], 2780 in assay [8], 20 in assay [9] and over 70 in assay [10].
For the compound `CC(N)Cc1ccc(N)cc1` (centres undefined), the IC50 came to 0.16 µM in the assay listed under Rattus norvegicus [1]; 0.07 µM in the assay listed under Rattus norvegicus [13]; 20 µM in the assay filed under Rattus norvegicus [3]; 6.8 µM in the assay filed under Rattus norvegicus [4]; 7000 µM in the assay listed under Rattus norvegicus [11]. In addition, the Least dose in the assay with Rattus norvegicus [5] is 72 mg/kg; in the assay with Rattus norvegicus [6], 276 mg/kg; with Rattus norvegicus [12], 72 mg/kg. Also, the Ratio is 19 in assay [7], 1030 in assay [8], >>5 in assay [9] and over 10 in assay [10].
On to `Cc1cc(N)c(Br)cc1CC(C)N` (centres undefined), for which the 50% inhibitory concentration (IC50) in the assay listed under Rattus norvegicus [1] was determined as 2 µM; in the assay filed under Rattus norvegicus [13], 0.55 µM; in the assay listed under Rattus norvegicus [3], 6.5 µM; in the assay filed under Rattus norvegicus [4], 1.5 µM; in the assay listed under Rattus norvegicus [11], 290 µM. Also, the values for the Least dose in the assay with Rattus norvegicus [5], in the assay on Rattus norvegicus [6] and with Rattus norvegicus [12] were over 211 mg/kg, 211 mg/kg and 211 mg/kg, respectively. For the same compound, the Ratio was 2.1 in assay [7], 193 in assay [8], over 2 in assay [9] and over 4 in assay [10].
For the compound `CC(N)Cc1ccc(N)cc1F` (centres undefined), the IC50 was found to be 0.42 µM in the assay listed under Rattus norvegicus [1]; 0.05 µM in the assay filed under Rattus norvegicus [13]; 1.3 µM in the assay listed under Rattus norvegicus [3]; 0.75 µM in the assay filed under Rattus norvegicus [4]; 800 µM in the assay listed under Rattus norvegicus [11]. The Least dose is 35 mg/kg with Rattus norvegicus [5], 140 mg/kg with Rattus norvegicus [6] and 17 mg/kg in the assay on Rattus norvegicus [12]. Moreover, the Ratio came to 23 in [7], 1070 in assay [8], 9 in [9] and 71 in assay [10].
In the case of `CCc1cc(N)ccc1CC(C)N` (centres undefined), the IC50 came to 20 µM in the assay listed under Rattus norvegicus [1]; 2 µM in the assay filed under Rattus norvegicus [13]; 10 µM in the assay filed under Rattus norvegicus [3]; 60 µM in the assay listed under Rattus norvegicus [4]; 1200 µM in the assay filed under Rattus norvegicus [11]. The Least dose in the assay with Rattus norvegicus [5], with Rattus norvegicus [6] and in the assay on Rattus norvegicus [12] was over 269 mg/kg in each case.
With `CC(N)Cc1c(Cl)cc(N)cc1Cl` (centres undefined), the IC50 in the assay filed under Rattus norvegicus [1] was 30 µM; in the assay filed under Rattus norvegicus [13], 2.2 µM; in the assay filed under Rattus norvegicus [3], 30 µM; in the assay filed under Rattus norvegicus [4] it was 0.012 µM; in the assay filed under Rattus norvegicus [11], 340 µM. The Least dose in the assay with Rattus norvegicus [5] was 229 mg/kg; with Rattus norvegicus [6], over 229 mg/kg; in the assay with Rattus norvegicus [12] it was 115 mg/kg. Further, the Ratio worked out at 1.5 in assay [7], 28300 in [8], 1 in [9] and 2.2 in assay [10].
As for `Cc1cc(N)ccc1CC(C)(C)N`, the IC50 in the assay filed under Rattus norvegicus [1] amounted to 40 µM; in the assay listed under Rattus norvegicus [13] it was 0.36 µM; in the assay filed under Rattus norvegicus [3] it was 2.6 µM; in the assay filed under Rattus norvegicus [4] it was 20 µM; in the assay filed under Rattus norvegicus [11], 1500 µM. In addition, the Least dose in the assay with Rattus norvegicus [5], in the assay with Rattus norvegicus [6] and in the assay on Rattus norvegicus [12] was over 269 mg/kg each time. The Ratio was 75 in assay [8] and over 1 in assay [9].
